Results on 7 molecules are retold here after ChEMBL document CHEMBL1201862, “PubChem BioAssay data set” (2004).

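Tested at 5 concentrations; 48 h exposure; 96-well plates; endpoints linearly interpolated, else capped at highest concentration. At the GI50, growth is halved.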 Calls of active or inactive are those of the source. Rule as the data show it: active = GI50 up to about 1.1 µM and inactive = higher. Starred links: 1 amine or outer side, 2 acyl side, 3 side chain; linkers in the order of their positions; H or OH if unused. Positions of bridges follow the written chain, without caps; N, C: chain ends. Non-standard residues stand in square brackets, D forms with d. Residues, ends and D or L forms follow the SMILES beside them. ξ: configuration not given here. *: point of attachment. γ4hArg(2R,3R-(OH)2) = N=C(N)NCCC[C@H](N[*:1])[C@@H](O)[C@@H](O)C(=O)[*:2]; Gln(3S,4R-Me2) = C[C@H]([C@H](N)C(=O)O)[C@@H](C)C(N)=O; X50 = CC(C)C[C@H](C)[C@@H](O)[C@@H](C)C(=O)*; X51 = COC(c1ccc(O)cc1)C(N[*:1])C(=O)[*:2]; NMeQ = CN[C@@H](CCC(N)=O)C(=O)O; Thr(3ξ) = CC(O)[C@H](N)C(=O)O; NMeA = CN[C@@H](C)C(=O)O

Some test systems named below: A549; EKVX; HCT-116; M14; MCF7; MDA-MB-231; MDA-N; Malme-3M; NCI-H226; OVCAR-4; OVCAR-8; RPMI-8226; SF-539; SK-MEL-28; SK-OV-3; SNB-19; SW-620; UACC-257; UACC-62; UO-31.
Common to all, as to experiment: growth of human tumour cells (NCI), 48 h

Regarding `COc1cc(C2c3cc4c(cc3OC(Nc3ccc(C(=O)O)cc3)C2C)OCO4)cc(OC)c1OC` (stereo not given), the GI50 in the assay on A549 was 373 nM (active); with EKVX, 745 nM (active); in the assay on HCT-116 it was 310 nM (active); with M14, 301 nM (active); in the assay with MCF7, 232 nM (active); in the assay with MDA-MB-231, 189 nM (active). Also, the GI50 is 55.7 nM (active) in the assay on MDA-N; 65.5 nM (active) in the assay with Malme-3M; 2310 nM (inactive) with NCI-H226; 458 nM (active) in the assay with OVCAR-4; 422 nM (active) in the assay on OVCAR-8; 337 nM (active) in the assay on RPMI-8226. Besides, the GI50 was 218 nM (active) with SF-539; 11100 nM (inactive) with SK-MEL-28; 362 nM (active) in the assay with SK-OV-3; 472 nM (active) in the assay on SNB-19; 350 nM (active) in the assay on SW-620; > 40300 nM (inactive) in the assay with UACC-257. Besides, the GI50 in the assay with UACC-62 was 403 nM (active); with UO-31, 426 nM (active).

With `COc1ccc(OC)c(/C=C/c2ccnc3ccccc23)c1`, the GI50 is 735 nM (active) in the assay on A549; 463 nM (active) with EKVX; 377 nM (active) with HCT-116; 375 nM (active) in the assay with M14; 851 nM (active) with MCF7; 565 nM (active) with MDA-MB-231. Besides, the GI50 with MDA-N was 156 nM (active); in the assay on Malme-3M, 2070 nM (inactive); in the assay with NCI-H226, 441 nM (active); in the assay with OVCAR-4 it was 863 nM (active); in the assay with OVCAR-8, 191 nM (active); with RPMI-8226 it was 773 nM (active). The GI50 in the assay on SF-539 is 210 nM (active); in the assay with SK-MEL-28, 574 nM (active); in the assay on SK-OV-3 it was 403 nM (active); in the assay with SNB-19 it was 631 nM (active); in the assay with SW-620, 366 nM (active); with UACC-257, 513 nM (active). The GI50 with UACC-62 is 307 nM (active); in the assay on UO-31 it was 458 nM (active).

`CC(C)NC(=O)OCc1c(COC(=O)NC(C)C)n(C)c2c1ccc1ccccc12`: the GI50 is 9980 nM (inactive) with A549; 2430 nM (inactive) in the assay on EKVX; 1450 nM (inactive) in the assay with HCT-116; 1630 nM (inactive) in the assay with M14; 570 nM (active) in the assay with MCF7; 1570 nM (inactive) with MDA-MB-231. Also, the GI50 in the assay on MDA-N is 1740 nM (inactive); in the assay with Malme-3M, 877 nM (active); in the assay on NCI-H226, 1820 nM (inactive); in the assay with OVCAR-4 it was 2750 nM (inactive); in the assay on OVCAR-8, 1800 nM (inactive); with RPMI-8226 it was 1190 nM (inactive). For the same molecule, the GI50 in the assay on SF-539 was 1680 nM (inactive); in the assay with SK-MEL-28, 1990 nM (inactive); in the assay on SK-OV-3, 9820 nM (inactive); in the assay on SNB-19, 1740 nM (inactive); in the assay on SW-620, 1370 nM (inactive); in the assay with UACC-257 it was 1520 nM (inactive). For the same molecule, the GI50 with UACC-62 was 1440 nM (inactive); in the assay with UO-31 it was 1900 nM (inactive).

Take `COc1ccc(/C(CC2OC(=O)c3ccccc32)=N\NC(N)=O)cc1` (stereo not given): the GI50 with A549, in the assay on EKVX, in the assay on HCT-116, with M14, in the assay on MCF7 and in the assay with MDA-MB-231 was > 100000 nM (inactive) throughout. Further, the GI50 in the assay on MDA-N, in the assay on Malme-3M, in the assay on NCI-H226, in the assay on OVCAR-4, in the assay with OVCAR-8 and with RPMI-8226 was > 100000 nM (inactive) throughout. Moreover, the GI50 in the assay with SF-539, with SK-MEL-28, with SK-OV-3, in the assay with SNB-19, in the assay on SW-620 and in the assay on UACC-257 was > 100000 nM (inactive) each time. Also, the GI50 in the assay on UACC-62 and in the assay on UO-31 was > 100000 nM (inactive) each time.

In the case of `Cc1cccc2c(N)c3cccc(C(=O)NCC[N+](C)(C)Cc4ccc([N+](=O)[O-])n4C)c3nc12`, the GI50 in the assay on A549 was 1920 nM (inactive); with EKVX it was 27600 nM (inactive); in the assay on HCT-116 it was 14600 nM (inactive); in the assay with M14 it was 23300 nM (inactive); in the assay with MCF7 it was 8650 nM (inactive); in the assay on MDA-MB-231, 38600 nM (inactive). Moreover, the GI50 in the assay on MDA-N was 41300 nM (inactive); in the assay on Malme-3M it was 15200 nM (inactive); in the assay with NCI-H226, 6500 nM (inactive); with OVCAR-4 it was 46800 nM (inactive); with OVCAR-8, 18700 nM (inactive); with RPMI-8226, 12100 nM (inactive). Further, the GI50 with SF-539 was 13500 nM (inactive); with SK-MEL-28, 43800 nM (inactive); with SK-OV-3 it was 25100 nM (inactive); in the assay with SNB-19, 15600 nM (inactive); in the assay on SW-620 it was 18600 nM (inactive); in the assay with UACC-257, 53500 nM (inactive). The GI50 in the assay with UACC-62 was 44300 nM (inactive); in the assay with UO-31, 16200 nM (inactive).

As to `COc1ccc2c(c1[N+](=O)[O-])CC[C@@H]1[C@@H]2CC[C@]2(C)C(=O)CC[C@@H]12`, the GI50 in the assay with A549 is > 25000 nM (inactive); in the assay on EKVX, > 25000 nM (inactive); with HCT-116, 20300 nM (inactive); in the assay on M14, > 25000 nM (inactive); in the assay with MCF7, > 25000 nM (inactive); in the assay on MDA-MB-231, > 25000 nM (inactive). Besides, the GI50 in the assay with MDA-N is > 925000 nM (inactive); with Malme-3M, 17200 nM (inactive); in the assay on NCI-H226 it was 23100 nM (inactive); in the assay on OVCAR-4 it was 15500 nM (inactive); with OVCAR-8 it was > 25000 nM (inactive); with RPMI-8226 it was > 25000 nM (inactive). Also, the GI50 is > 25000 nM (inactive) in the assay with SF-539; 20700 nM (inactive) with SK-MEL-28; 7410 nM (inactive) in the assay with SK-OV-3; 24200 nM (inactive) in the assay on SNB-19; > 25000 nM (inactive) in the assay with SW-620; > 25000 nM (inactive) in the assay on UACC-257. Also, the GI50 with UACC-62 was 18300 nM (inactive); with UO-31 it was > 25000 nM (inactive).

In the case of `COC(c1ccc(O)cc1)C1NC(=O)[C@H](CCC(N)=O)N(C)C(=O)[C@H](CC(C)C)NC(=O)[C@@H](CCCN=C(N)N)NC(=O)[C@H](C(C)O)NC(=O)[C@@H](NC(=O)[C@@H](NC(=O)[C@H](O)[C@H](O)[C@H](CCCN=C(N)N)NC(=O)[C@H](C)NC(=O)[C@H](C)[C@H](O)[C@@H](C)CC(C)C)[C@@H](C)[C@@H](C)C(N)=O)[C@@H](C)OC(=O)[C@H](C)N(C)C1=O` (stereo partly drawn) (X50-A[γ4hArg(2R,3R-(OH)2)][Gln(3S,4R-Me2)]T[Thr(3ξ)][dR]L[NMeQ][X51][NMeA]; ester 4-C), the GI50 is 141 nM (active) in the assay on A549; 99.5 nM (active) in the assay with EKVX; 281 nM (active) with HCT-116; 115 nM (active) in the assay with M14; 140 nM (active) in the assay with MCF7; 106 nM (active) with MDA-MB-231. Further, the GI50 in the assay with MDA-N was 135 nM (active); in the assay with Malme-3M, 84 nM (active); with NCI-H226 it was 212 nM (active); in the assay with OVCAR-4 it was 134 nM (active); in the assay with OVCAR-8 it was 88.9 nM (active); in the assay on RPMI-8226 it was 106 nM (active). Besides, the GI50 was 85.9 nM (active) with SF-539; 223 nM (active) with SK-MEL-28; 189 nM (active) with SK-OV-3; 92.9 nM (active) in the assay on SNB-19; 137 nM (active) with SW-620; 113 nM (active) in the assay on UACC-257. Also, the values for the GI50 in the assay on UACC-62 and with UO-31 were 126 nM (active) and 249 nM (active), respectively.
